Data as given in the supplement of paper PMC10307832.

Key:
Experiment in all cases: relative viability (nuclei count vs DMSO), 5 days (fraction); higher = more cells survive
[1] = compound: CC1CC(=O)N(C2=CN=C(N=C2N1C3CCCC3)NC4=C(C=C(C=C4)C(=O)NC5CCN(CC5)C)OC)C [NPK76-II-72-1] + CC(C)C[C@H](NC(=O)[C@H](Cc1ccccc1)NC(=O)c1cnccn1)B(O)O [Bortezomib] (partner 0.002 µM)
Method in brief: (§1)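 A single step with final 0.05% Triton X-100, 1% formaldehyde and 1 ug/ml Hoechst fixed the cells and stained nuclei 5 days after treatment. Lung cancer cell lines in 1536-well plates had been treated by pin tool the day after seeding with one drug alone or a fixed anchor-drug dose plus five library-drug doses (not always all listed) in √10 steps, and nuclei were counted on 4× images. Relative viability is the ratio of nuclei in treated wells to nuclei in vehicle wells, taken as the median of duplicate plates.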

[2] = compound: CC1CC(=O)N(C2=CN=C(N=C2N1C3CCCC3)NC4=C(C=C(C=C4)C(=O)NC5CCN(CC5)C)OC)C [NPK76-II-72-1] + O=C(CCCCCCC(=O)Nc1ccccc1)NO [Vorinostat] (partner 1 µM)
Method in brief: as §1

BI-2536 + Phenformin = compound: CC[C@@H]1C(=O)N(C)c2cnc(Nc3ccc(C(=O)NC4CCN(C)CC4)cc3OC)nc2N1C1CCCC1 [BI-2536] + N=C(N)NC(=N)NCCc1ccccc1 [Phenformin] (partner 250 µM)
Method in brief: as §1

BI-2536 + AZD7762 = compound: CC[C@@H]1C(=O)N(C)c2cnc(Nc3ccc(C(=O)NC4CCN(C)CC4)cc3OC)nc2N1C1CCCC1 [BI-2536] + NC(=O)Nc1cc(-c2cccc(F)c2)sc1C(=O)N[C@H]1CCCNC1 [AZD7762] (partner 0.2 µM)
Method in brief: as §1

In the case of NCI-H1650, the relative viability ([1]; first compound 0.01 µM) is reported as 0.211, the relative viability ([1]; first compound 0.03162 µM) is reported as 0.191 and the relative viability ([1]; first compound 0.1 µM) is reported as 0.183. For the same cell line, the relative viability ([1]; first compound 0.3162 µM) was 0.218, the relative viability ([1]; first compound 1 µM) was 0.211 and the relative viability ([2]; first compound 0.01 µM) was 0.571. It also gave a relative viability ([2]; first compound 0.03162 µM) of 0.508, a relative viability ([2]; first compound 0.1 µM) of 0.658 and a relative viability ([2]; first compound 0.3162 µM) of 0.57. For the same cell line, the relative viability ([2]; first compound 1 µM) was 0.555, the relative viability (BI-2536 + Phenformin; first compound 0.01 µM) was 0.425 and the relative viability (BI-2536 + Phenformin; first compound 0.03162 µM) was 0.3. It also gave a relative viability (BI-2536 + Phenformin; first compound 0.1 µM) of 0.166, a relative viability (BI-2536 + Phenformin; first compound 0.3162 µM) of 0.141 and a relative viability (BI-2536 + Phenformin; first compound 1 µM) of 0.134.

In the case of NCI-H1395, the relative viability ([2]; first compound 0.01 µM) is reported as 0.711, the relative viability ([2]; first compound 0.03162 µM) is reported as 0.67 and the relative viability ([2]; first compound 0.1 µM) is reported as 0.642. For the same cell line, the relative viability ([2]; first compound 0.3162 µM) was 0.721, the relative viability ([2]; first compound 1 µM) was 0.84 and the relative viability (BI-2536 + Phenformin; first compound 0.01 µM) was 0.439. For the same cell line, the relative viability (BI-2536 + Phenformin; first compound 0.03162 µM) was 0.444, the relative viability (BI-2536 + Phenformin; first compound 0.1 µM) was 0.293 and the relative viability (BI-2536 + Phenformin; first compound 0.3162 µM) was 0.279. It also gave a relative viability (BI-2536 + Phenformin; first compound 1 µM) of 0.316, a relative viability (BI-2536 + AZD7762; first compound 0.01 µM) of 0.382 and a relative viability (BI-2536 + AZD7762; first compound 0.03162 µM) of 0.348. It also gave a relative viability (BI-2536 + AZD7762; first compound 0.1 µM) of 0.319, a relative viability (BI-2536 + AZD7762; first compound 0.3162 µM) of 0.351 and a relative viability (BI-2536 + AZD7762; first compound 1 µM) of 0.325.

LU99A gave a relative viability ([1]; first compound 0.01 µM) of 1.17, a relative viability ([1]; first compound 0.03162 µM) of 1.28 and a relative viability ([1]; first compound 0.1 µM) of 1.23. It also gave a relative viability ([1]; first compound 0.3162 µM) of 0.952, a relative viability ([1]; first compound 1 µM) of 1.3 and a relative viability ([2]; first compound 0.01 µM) of 0.437. It also gave a relative viability ([2]; first compound 0.03162 µM) of 0.492, a relative viability ([2]; first compound 0.1 µM) of 0.62 and a relative viability ([2]; first compound 0.3162 µM) of 0.535. For the same cell line, the relative viability ([2]; first compound 1 µM) was 0.528, the relative viability (BI-2536 + Phenformin; first compound 0.01 µM) was 0.816 and the relative viability (BI-2536 + Phenformin; first compound 0.03162 µM) was 0.823. It also gave a relative viability (BI-2536 + Phenformin; first compound 0.1 µM) of 0.212, a relative viability (BI-2536 + Phenformin; first compound 0.3162 µM) of 0.197 and a relative viability (BI-2536 + Phenformin; first compound 1 µM) of 0.2. It also gave a relative viability (BI-2536 + AZD7762; first compound 0.01 µM) of 0.309, a relative viability (BI-2536 + AZD7762; first compound 0.03162 µM) of 0.334 and a relative viability (BI-2536 + AZD7762; first compound 0.1 µM) of 0.111. It also gave a relative viability (BI-2536 + AZD7762; first compound 0.3162 µM) of 0.145 and a relative viability (BI-2536 + AZD7762; first compound 1 µM) of 0.102.

NCI-H1563 was tested, and the relative viability ([1]; first compound 0.01 µM) was 0.883, the relative viability ([1]; first compound 0.03162 µM) was 0.861 and the relative viability ([1]; first compound 0.1 µM) was 0.712. It also gave a relative viability ([1]; first compound 0.3162 µM) of 0.883, a relative viability ([1]; first compound 1 µM) of 0.879 and a relative viability (BI-2536 + Phenformin; first compound 0.01 µM) of 0.719. For the same cell line, the relative viability (BI-2536 + Phenformin; first compound 0.03162 µM) was 0.63, the relative viability (BI-2536 + Phenformin; first compound 0.1 µM) was 0.683 and the relative viability (BI-2536 + Phenformin; first compound 0.3162 µM) was 0.525. For the same cell line, the relative viability (BI-2536 + Phenformin; first compound 1 µM) was 0.498.

With LK-2 the relative viability ([2]; first compound 0.01 µM) was 0.451, the relative viability ([2]; first compound 0.03162 µM) was 0.263 and the relative viability ([2]; first compound 0.1 µM) was 0.36. It also gave a relative viability ([2]; first compound 0.3162 µM) of 0.165, a relative viability ([2]; first compound 1 µM) of 0.327 and a relative viability (BI-2536 + Phenformin; first compound 0.01 µM) of 0.473. For the same cell line, the relative viability (BI-2536 + Phenformin; first compound 0.03162 µM) was 0.362, the relative viability (BI-2536 + Phenformin; first compound 0.1 µM) was 0.165 and the relative viability (BI-2536 + Phenformin; first compound 0.3162 µM) was 0.15. It also gave a relative viability (BI-2536 + Phenformin; first compound 1 µM) of 0.163, a relative viability (BI-2536 + AZD7762; first compound 0.01 µM) of 0.463 and a relative viability (BI-2536 + AZD7762; first compound 0.03162 µM) of 0.5. For the same cell line, the relative viability (BI-2536 + AZD7762; first compound 0.1 µM) was 0.121, the relative viability (BI-2536 + AZD7762; first compound 0.3162 µM) was 0.0816 and the relative viability (BI-2536 + AZD7762; first compound 1 µM) was 0.091.

For COR-L23, the relative viability ([1]; first compound 0.01 µM) was 0.942, the relative viability ([1]; first compound 0.03162 µM) was 1 and the relative viability ([1]; first compound 0.1 µM) was 0.889. It also gave a relative viability ([1]; first compound 0.3162 µM) of 0.961, a relative viability ([1]; first compound 1 µM) of 0.99 and a relative viability ([2]; first compound 0.01 µM) of 0.408. It also gave a relative viability ([2]; first compound 0.03162 µM) of 0.519, a relative viability ([2]; first compound 0.1 µM) of 0.408 and a relative viability ([2]; first compound 0.3162 µM) of 0.427. The relative viability ([2]; first compound 1 µM) was 0.48, the relative viability (BI-2536 + Phenformin; first compound 0.01 µM) was 0.434 and the relative viability (BI-2536 + Phenformin; first compound 0.03162 µM) was 0.371. It also gave a relative viability (BI-2536 + Phenformin; first compound 0.1 µM) of 0.116, a relative viability (BI-2536 + Phenformin; first compound 0.3162 µM) of 0.0966 and a relative viability (BI-2536 + Phenformin; first compound 1 µM) of 0.0886.

SW 900 gave a relative viability ([2]; first compound 0.01 µM) of 0.515, a relative viability ([2]; first compound 0.03162 µM) of 0.624 and a relative viability ([2]; first compound 0.1 µM) of 0.515. For the same cell line, the relative viability ([2]; first compound 0.3162 µM) was 0.433, the relative viability ([2]; first compound 1 µM) was 0.559 and the relative viability (BI-2536 + Phenformin; first compound 0.01 µM) was 0.683. It also gave a relative viability (BI-2536 + Phenformin; first compound 0.03162 µM) of 0.564, a relative viability (BI-2536 + Phenformin; first compound 0.1 µM) of 0.493 and a relative viability (BI-2536 + Phenformin; first compound 0.3162 µM) of 0.106. It also gave a relative viability (BI-2536 + Phenformin; first compound 1 µM) of 0.146, a relative viability (BI-2536 + AZD7762; first compound 0.01 µM) of 0.557 and a relative viability (BI-2536 + AZD7762; first compound 0.03162 µM) of 0.689. It also gave a relative viability (BI-2536 + AZD7762; first compound 0.1 µM) of 0.568, a relative viability (BI-2536 + AZD7762; first compound 0.3162 µM) of 0.188 and a relative viability (BI-2536 + AZD7762; first compound 1 µM) of 0.137.

Cell Line NCI-H1648 has a relative viability ([2]; first compound 0.01 µM) of 0.455, a relative viability ([2]; first compound 0.03162 µM) of 0.536 and a relative viability ([2]; first compound 0.1 µM) of 0.319. It also gave a relative viability ([2]; first compound 0.3162 µM) of 0.348, a relative viability ([2]; first compound 1 µM) of 0.437 and a relative viability (BI-2536 + AZD7762; first compound 0.01 µM) of 0.767. For the same cell line, the relative viability (BI-2536 + AZD7762; first compound 0.03162 µM) was 0.775, the relative viability (BI-2536 + AZD7762; first compound 0.1 µM) was 0.432 and the relative viability (BI-2536 + AZD7762; first compound 0.3162 µM) was 0.332. For the same cell line, the relative viability (BI-2536 + AZD7762; first compound 1 µM) was 0.224.

Cell Line A549 has a relative viability (BI-2536 + Phenformin; first compound 0.01 µM) of 0.143, a relative viability (BI-2536 + Phenformin; first compound 0.03162 µM) of 0.132 and a relative viability (BI-2536 + Phenformin; first compound 0.1 µM) of 0.0229. The relative viability (BI-2536 + Phenformin; first compound 0.3162 µM) was 0.0377 and the relative viability (BI-2536 + Phenformin; first compound 1 µM) was 0.0372.

With NCI-H1792 the relative viability ([1]; first compound 0.01 µM) was 1.06, the relative viability ([1]; first compound 0.03162 µM) was 0.961 and the relative viability ([1]; first compound 0.1 µM) was 0.829. It also gave a relative viability ([1]; first compound 0.3162 µM) of 0.879, a relative viability ([1]; first compound 1 µM) of 1.07 and a relative viability (BI-2536 + Phenformin; first compound 0.01 µM) of 0.451. For the same cell line, the relative viability (BI-2536 + Phenformin; first compound 0.03162 µM) was 0.49, the relative viability (BI-2536 + Phenformin; first compound 0.1 µM) was 0.301 and the relative viability (BI-2536 + Phenformin; first compound 0.3162 µM) was 0.0773. The relative viability (BI-2536 + Phenformin; first compound 1 µM) was 0.0991, the relative viability (BI-2536 + AZD7762; first compound 0.01 µM) was 0.704 and the relative viability (BI-2536 + AZD7762; first compound 0.03162 µM) was 0.692. The relative viability (BI-2536 + AZD7762; first compound 0.1 µM) was 0.415, the relative viability (BI-2536 + AZD7762; first compound 0.3162 µM) was 0.0392 and the relative viability (BI-2536 + AZD7762; first compound 1 µM) was 0.0281.
